According to US11661403B2, “Oxadiazole compounds” (Vivace Therapeutics, Inc., priority 2018, dated 2023):
Read-outs that look alike come from different tables or passages of the source.

System: 8XTBD luciferase reporter (YAP) in HEK293T cells
Test: YAP Reporter Assay
Type: cell-based
Conditions: Homo sapiens, HEK-293T
[1] = HEK293T cells stably transfected with 8XTBD luciferase reporter and pRLTK, 24-hr incubation, top concentration 3 μM, read-out: Firefly Luciferase IC50
[2] = […], 24-hr incubation, top concentration 3 μM, read-out: Firefly Luciferase IC50
[3] = 24 h, read-out: Firefly Luciferase IC50 (μM)

Work on O=c1[nH]c(-c2nnc(-c3ccccc3Nc3ccc(C(F)(F)F)cc3)o2)no1 [Compound 50, 3-[5-[2-[4-(trifluoromethyl)anilino]phenyl]-1,3,4-oxadiazol-2-yl]-4H-1,2,4-oxadiazol-5-one] yielded an IC50 [1] of 1 to 5 µM.

OC(c1nnc(-c2ccccc2Nc2ccc(C(F)(F)F)cc2)o1)C(F)(F)F (stereo not drawn) [Compound 51, 2,2,2-trifluoro-1-(5-(2-((4-(trifluoromethyl)phenyl)amino)phenyl)-1,3,4-oxadiazol-2-yl)ethanol] was tested, and the IC50 [1] was < 0.1 µM.

For OC1(c2nnc(-c3ccccc3Nc3ccc(C(F)(F)F)cc3)o2)CCCC1 [Compound 52, 1-(5-(2-((4-(trifluoromethyl)phenyl)amino)phenyl)-1,3,4-oxadiazol-2-yl)cyclo pentanol], the IC50 [1] was < 0.1 µM.

Molecule Cc1ccc(S(=O)(=O)OC2(c3nnc(-c4ccccc4Nc4ccc(C(F)(F)F)cc4)o3)CC2)cc1 [Compound 53, 1-(5-(2-((4-(trifluoromethyl)phenyl)amino)phenyl)-1,3,4-oxadiazol-2-yl)cyclo propyl 4-methylbenzenesulfonate] has an IC50 [1] of 0.1 to 1 µM.

OC1(c2nnc(-c3ccccc3Nc3ccc(C(F)(F)F)cc3)o2)CCC1 [Compound 54, 1-(5-(2-((4-(trifluoromethyl)phenyl)amino)phenyl)-1,3,4-oxadiazol-2-yl)cyclo butanol] was tested, and the IC50 [2] was < 0.1 µM.

For OC1(c2nnc(-c3ccccc3Nc3ccc(C(F)(F)F)cc3)o2)COC1 [Compound 55, 3-(5-(2-((4-(trifluoromethyl)phenyl)amino)phenyl)-1,3,4-oxadiazol-2-yl)oxetan-3-ol], the IC50 [1] was < 0.1 µM.

With OC1(c2nnc(-c3ccccc3Nc3ccc(C(F)(F)F)cc3)o2)CCOC1 (stereo not drawn) [Compound 56, 3-(5-(2-((4-(trifluoromethyl)phenyl)amino)phenyl)-1,3,4-oxadiazol-2-yl)tetra hydrofuran-3-ol] the IC50 [1] was < 0.1 µM.

CC(C)(C)OC(=O)NC1(c2nnc(-c3ccccc3Nc3ccc(C(F)(F)F)cc3)o2)CC1 [Compound 57, Tert-Butyl (1-(5-(2-((4-(trifluoromethyl)phenyl)amino)phenyl)-1,3,4-oxadiazol-2-yl)cyclopropyl)carbamate] showed an IC50 [1] of 0.1 to 1 µM.

NC1(c2nnc(-c3ccccc3Nc3ccc(C(F)(F)F)cc3)o2)CC1 [Compound 58, 2-(5-(1-aminocyclopropyl)-1,3,4-oxadiazol-2-yl)-N-(4-(trifluoromethyl)phenyl) aniline] was tested, and the IC50 [1] was 0.1 to 1 µM.

CC(=O)NC1(c2nnc(-c3ccccc3Nc3ccc(C(F)(F)F)cc3)o2)CC1 [Compound 59, N-(1-(5-(2-((4-(trifluoromethyl)phenyl)amino)phenyl)-1,3,4-oxadiazol-2-yl)cyclopropyl)acetamide] showed an IC50 [2] of 0.1 to 1 µM.

For OC(c1nnc(-c2ccccc2Nc2ccc(C(F)(F)F)cc2)o1)C(F)F (stereo not drawn) [Compound 60, 2,2-difluoro-1-(5-(2-((4-(trifluoromethyl)phenyl)amino)phenyl)-1,3,4-oxadiazol-2-yl)ethanol], the IC50 [1] was < 0.1 µM.

NC(=O)NC1(c2nnc(-c3ccccc3Nc3ccc(C(F)(F)F)cc3)o2)CC1 [Compound 62, 1-(1-(5-(2-((4-(trifluoromethyl)phenyl)amino)phenyl)-1,3,4-oxadiazol-2-yl)cyclopropyl)urea] gave an IC50 [1] of 0.1 to 1 µM.

FC(F)(F)c1ccc(Nc2ccccc2-c2nnc(C3(F)CC3)o2)cc1 [Compound 63, 2-(5-(1-fluorocyclopropyl)-1,3,4-oxadiazol-2-yl)-N-(4-(trifluoromethyl)phenyl) aniline] gave an IC50 [1] of 1 to 5 µM.

In the case of CS(=O)(=O)C1(c2nnc(-c3ccccc3Nc3ccc(C(F)(F)F)cc3)o2)CC1 [Compound 66, 2-[5-(1-methylsulfonylcyclopropyl)-1,3,4-oxadiazol-2-yl]-N-[4-(trifluoromethyl)phenyl]aniline], the IC50 [2] is reported as < 0.1 µM.

COC1(c2nnc(-c3ccccc3Nc3ccc(C(F)(F)F)cc3)o2)CC1 [Compound 67, 2-(5-(1-methoxycyclopropyl)-1,3,4-oxadiazol-2-yl)-N-(4-(trifluoromethyl)phenyl) aniline] was tested, and the IC50 [1] was < 0.1 µM.

C#CC(C)(C)c1nnc(-c2ccccc2Nc2ccc(C(F)(F)F)cc2)o1 [Compound 68, 2-(5-(2-methylbut-3-yn-2-yl)-1,3,4-oxadiazol-2-yl)-N-(4-(trifluoromethyl)phenyl)aniline] was tested, and the IC50 [1] was < 0.1 µM.

With C#CC(C)Oc1nnc(-c2ccccc2Nc2ccc(C(F)(F)F)cc2)o1 (stereo not drawn) [Compound 69, 2-(5-(but-3-yn-2-yloxy)-1,3,4-oxadiazol-2-yl)-N-(4-(trifluoromethyl)phenyl)aniline] the IC50 [1] was < 0.1 µM.

CC#CCOc1nnc(-c2ccccc2Nc2ccc(C(F)(F)F)cc2)o1 [Compound 70, 2-(5-(but-2-yn-1-yloxy)-1,3,4-oxadiazol-2-yl)-N-(4-(trifluoromethyl)phenyl)aniline] gave an IC50 [2] of 1 to 5 µM.

CS(=O)(=O)c1nnc(-c2ccccc2Nc2ccc(C(F)(F)F)cc2)o1 [Compound 71, 2-(5-(methylsulfonyl)-1,3,4-oxadiazol-2-yl)-N-(4-(trifluoromethyl)phenyl)aniline] showed an IC50 [1] of 0.1 to 1 µM.

CSc1nnc(-c2ccccc2Nc2ccc(C(F)(F)F)cc2)o1 [Compound 72, 2-(5-(methylthio)-1,3,4-oxadiazol-2-yl)-N-(4-(trifluoromethyl)phenyl)aniline] showed an IC50 [1] of 0.1 to 1 µM.

In the case of COc1nnc(-c2ccccc2Nc2ccc(C(F)(F)F)cc2)o1 [Compound 73, 2-(5-methoxy-1,3,4-oxadiazol-2-yl)-N-(4-(trifluoromethyl)phenyl)aniline], the IC50 [1] is reported as < 0.1 µM.

For C[C@@]1(c2nnc(-c3ccccc3Nc3ccc(C(F)(F)F)cc3)o2)CCNC1=O [Compound 75, (S)-3-methyl-3-(5-(2-((4-(trifluoromethyl)phenyl)amino)phenyl)-1,3,4-oxadiazol-2-yl)pyrrolidin-2-one], the IC50 [1] was < 0.1 µM.

For C[C@]1(c2nnc(-c3ccccc3Nc3ccc(C(F)(F)F)cc3)o2)CCNC1=O [Compound 76, (R)-3-methyl-3-(5-(2-((4-(trifluoromethyl)phenyl)amino)phenyl)-1,3,4-oxadiazol-2-yl)pyrrolidin-2-one], the IC50 [1] was < 0.1 µM.

In the case of O=C1N[C@@H](c2nnc(-c3ccccc3Nc3ccc(C(F)(F)F)cc3)o2)CO1 [Compound 77, (R)-4-(5-(2-((4-(trifluoromethyl)phenyl)amino)phenyl)-1,3,4-oxadiazol-2-yl)oxazolidin-2-one], the IC50 [3] is reported as < 0.1 µM.

O=C1N[C@H](c2nnc(-c3ccccc3Nc3ccc(C(F)(F)F)cc3)o2)CO1 [Compound 78, (S)-4-(5-(2-((4-(trifluoromethyl)phenyl)amino)phenyl)-1,3,4-oxadiazol-2-yl)oxazolidin-2-one] showed an IC50 [3] of 0.1 to 1 µM.

OC(CCl)Cc1nnc(-c2ccccc2Nc2ccc(C(F)(F)F)cc2)o1 (stereo not drawn) [Compound 79, 1-chloro-3-(5-(2-((4-(trifluoromethyl)phenyl)amino)phenyl)-1,3,4-oxadiazol-2-yl)propan-2-ol] was tested, and the IC50 [2] was < 0.1 µM.

With OC(CCCl)c1nnc(-c2ccccc2Nc2ccc(C(F)(F)F)cc2)o1 (stereo not drawn) [Compound 80, 3-chloro-1-(5-(2-((4-(trifluoromethyl)phenyl)amino)phenyl)-1,3,4-oxadiazol-2-yl)propan-1-ol] the IC50 [2] was < 0.1 µM.

For OC(CCl)c1nnc(-c2ccccc2Nc2ccc(C(F)(F)F)cc2)o1 (stereo not drawn) [Compound 81, 2-chloro-1-(5-(2-((4-(trifluoromethyl)phenyl)amino)phenyl)-1,3,4-oxadiazol-2-yl)ethan-1-ol], the IC50 [1] was < 0.1 µM.

FC(F)(F)c1ccc(Nc2ccccc2-c2nnc(OC/C=C/Br)o2)cc1 [Compound 82, (E)-2-(5-((3-bromoallyl)oxy)-1,3,4-oxadiazol-2-yl)-N-(4-(trifluoromethyl)phenyl)aniline] gave an IC50 [1] of 0.1 to 1 µM.

With C#CCOc1nnc(-c2ccccc2Nc2ccc(C(F)(F)F)cc2)o1 [Compound 83, 2-(5-(prop-2-yn-1-yloxy)-1,3,4-oxadiazol-2-yl)-N-(4-(trifluoromethyl)phenyl)aniline] the IC50 [1] was < 0.1 µM.

In the case of C=CCOc1nnc(-c2ccccc2Nc2ccc(C(F)(F)F)cc2)o1 [Compound 84, 2-(5-(allyloxy)-1,3,4-oxadiazol-2-yl)-N-(4-(trifluoromethyl)phenyl)aniline], the IC50 [2] is reported as 0.1 to 1 µM.

In the case of CC(=O)c1nnc(-c2ccccc2Nc2ccc(C(F)(F)F)cc2)o1 [Compound 85, 1-(5-(2-((4-(trifluoromethyl)phenyl)amino)phenyl)-1,3,4-oxadiazol-2-yl)ethan-1-one], the IC50 [1] is reported as < 0.1 µM.

For CC1(c2nnc(-c3ccccc3Nc3ccc(C(F)(F)F)cc3)o2)OCCO1 [Compound 86, 2-(5-(2-methyl-1,3-dioxolan-2-yl)-1,3,4-oxadiazol-2-yl)-N-(4-(trifluoromethyl)phenyl)aniline], the IC50 [1] was < 0.1 µM.

For CON(C)C(=O)C(C)(C)c1nnc(-c2ccccc2Nc2ccc(C(F)(F)F)cc2)o1 [Compound 87, N-methoxy-N,2-dimethyl-2-(5-(2-((4-(trifluoromethyl)phenyl)amino)phenyl)-1,3,4-oxadiazol-2-yl)propanamide], the IC50 [1] was < 0.1 µM.

For N#CC1(Cc2nnc(-c3ccccc3Nc3ccc(C(F)(F)F)cc3)o2)CC1 [Compound 88, 1-((5-(2-((4-(trifluoromethyl)phenyl)amino)phenyl)-1,3,4-oxadiazol-2-yl)methyl)cyclopropane-1-carbonitrile], the IC50 [1] was 0.1 to 1 µM.

Work on CC(C)(C#N)Cc1nnc(-c2ccccc2Nc2ccc(C(F)(F)F)cc2)o1 [Compound 89, 2,2-dimethyl-3-(5-(2-((4-(trifluoromethyl)phenyl)amino)phenyl)-1,3,4-oxadiazol-2-yl)propanenitrile] yielded an IC50 [1] of 0.1 to 1 µM.

With CCc1nnc(-c2ccccc2Nc2ccc(C(F)(F)F)cc2)o1 [Compound 90, 2-(5-ethyl-1,3,4-oxadiazol-2-yl)-N-(4-(trifluoromethyl)phenyl)aniline] the IC50 [1] was 0.1 to 1 µM.

For CC(C)NCCc1nnc(-c2ccccc2Nc2ccc(C(F)(F)F)cc2)o1 [Compound 91, 2-(5-(2-(isopropylamino)ethyl)-1,3,4-oxadiazol-2-yl)-N-(4-(trifluoromethyl)phenyl)aniline], the IC50 [1] was 1 to 5 µM.

In the case of CC(C)N(C#N)CCc1nnc(-c2ccccc2Nc2ccc(C(F)(F)F)cc2)o1 [Compound 93, N-isopropyl-N-(2-(5-(2-((4-(trifluoromethyl)phenyl)amino)phenyl)-1,3,4-oxadiazol-2-yl)ethyl)cyanamide], the IC50 [1] is reported as 0.1 to 1 µM.
